Read-outs that look alike come from different tables or passages of the source.
Tests used:
[1] = test system: HOP-62; experiment: SRB 48 h growth assay, Non-small Cell Lung HOP-62; type: cell-based, human; settings: HOP-62, Non-small Cell Lung
[2] = test system: MCF7; experiment: SRB 48 h growth assay, Breast MCF7; type: cell-based, human
[3] = test system: UACC-62; experiment: SRB 48 h growth assay, Melanoma UACC-62; type: cell-based, human; settings: UACC-62, Melanoma
[4] = test system: OVCAR-4; experiment: SRB 48 h growth assay, Ovarian OVCAR-4; type: cell-based, human; settings: OVCAR-4, Ovarian
[5] = test system: NCI-H522; experiment: SRB 48 h growth assay, Non-small Cell Lung NCI-H522; type: cell-based, human
[6] = test system: MDA-MB-231/ATCC; experiment: SRB 48 h growth assay, Breast MDA-MB-231/ATCC; type: cell-based, human
[7] = test system: MDA-MB-435; experiment: SRB 48 h growth assay, Melanoma MDA-MB-435; type: cell-based, human; settings: MDA-MB-435, Melanoma
[8] = test system: A549/ATCC; experiment: SRB 48 h growth assay, Non-small Cell Lung A549/ATCC; type: cell-based, human
[9] = test system: 786-0; experiment: SRB 48 h growth assay, Renal 786-0; type: cell-based, human; settings: 786-0, Renal
[10] = test system: NCI-H23; experiment: SRB 48 h growth assay, Non-small Cell Lung NCI-H23; type: cell-based, human
[11] = test system: CCRF-CEM; experiment: SRB 48 h growth assay, Leukemia CCRF-CEM; type: cell-based, human
[12] = test system: PC-3; experiment: SRB 48 h growth assay, Prostate PC-3; type: cell-based, human; settings: PC-3, Prostate
[13] = test system: BT-549; experiment: SRB 48 h growth assay, Breast BT-549; type: cell-based, human; settings: BT-549, Breast
[14] = test system: two prostate cancer cell line (PC-3, DU-145); experiment: in vitro anticancer activity, prostate panel; type: cell-based; settings: Homo sapiens; two prostate cancer cell lines, exposure at least 48 h; read-out: GI50, range over panel
[15] = test system: seven colon cancer cell line (COLO 205, HCC-2998, HCT-116, HCT-15, HT29, KM12 and SW-620); experiment: in vitro anticancer activity, colon panel; type: cell-based; settings: Homo sapiens; seven colon cancer cell lines, exposure at least 48 h; read-out: GI50, range over panel
[16] = test system: M14; experiment: SRB 48 h growth assay, Melanoma M14; type: cell-based, human
[17] = test system: K-562; experiment: SRB 48 h growth assay, Leukemia K-562; type: cell-based, human
[18] = test system: RXF393; experiment: SRB 48 h growth assay, Renal RXF393; type: cell-based, human
[19] = test system: six CNS cancer cell line (SF-268, SF-295, SF-539, SNB-19, SNB-75 and U251); experiment: in vitro anticancer activity, CNS panel; type: cell-based; settings: Homo sapiens; six CNS cancer cell lines, exposure at least 48 h; read-out: GI50, range over panel
[20] = test system: seven ovarian cancer cell lines (IGROV1, OVCAR-3, OVCAR-4, OVCAR-5, OVCAR-8, NCI/ADR-RES and SK-OV-3); experiment: in vitro anticancer activity, ovarian panel; type: cell-based; settings: Homo sapiens, exposure at least 48 h, read-out: GI50, range over panel
[21] = test system: six breast cancer cell line (MCF-7, MDA-MB-231/ATCC, HS 578T, TD-47D, MDA-MB-468 and BT-549); experiment: in vitro anticancer activity, breast panel; type: cell-based; settings: Homo sapiens; six breast cancer cell lines, exposure at least 48 h; read-out: GI50, range over panel
[22] = test system: RPMI-8226; experiment: SRB 48 h growth assay, Leukemia RPMI-8226; type: cell-based, human; settings: RPMI-8226, Leukemia
[23] = test system: DU-145; experiment: SRB 48 h growth assay, Prostate DU-145; type: cell-based, human; settings: DU-145, Prostate
[24] = test system: ACHN; experiment: SRB 48 h growth assay, Renal ACHN; type: cell-based, human
[25] = test system: TK-10; experiment: SRB 48 h growth assay, Renal TK-10; type: cell-based, human; settings: TK-10, Renal
[26] = test system: HS578T; experiment: SRB 48 h growth assay, Breast HS578T; type: cell-based, human
[27] = Homo sapiens, read-out: Growth Inhibition GI50
[28] = Homo sapiens, read-out: Log10 GI50 (converted)
[29] = Homo sapiens, read-out: Log10 LC50 (converted)

C#Cc1ccc(-n2c(/C=C/c3ccc(C(F)(F)F)cc3)nc3ncccc3c2=O)cc1 [4c, (E)-3-(4-Ethynylphenyl)-2-(4-(trifluoromethyl)styryl)pyrido[2,3-d]pyrimidin-4(3H)-one]
Log10 TGI50 [1]: −5.29
GI50 [1, 27]: 2430 nM
GI50 [1, 28]: 2450 nM
CC50 [1, 29]: > 100000 nM
Log10 TGI50 [2]: −4.99
GI50 [2, 27]: 2490 nM
GI50 [2, 28]: 2510 nM
CC50 [2, 29]: > 100000 nM
GI50 [3, 27]: 1620 nM
GI50 [3, 28]: 1620 nM
CC50 [3, 29]: 7940 nM
Log10 TGI50 [3]: −5.44
GI50 [4, 27]: 1580 nM
GI50 [4, 28]: 479 nM
CC50 [4, 29]: 6920 nM
Log10 TGI50 [4]: −5.48
Log10 TGI50 [5]: −5.51
GI50 [5, 27]: 1650 nM
GI50 [5, 28]: 1660 nM
CC50 [5, 29]: 5750 nM
Log10 TGI50 [6]: −5.26
GI50 [6, 27]: 2050 nM
GI50 [6, 28]: 2040 nM
CC50 [6, 29]: 60300 nM
GI50 [7, 27]: 2270 nM
GI50 [7, 28]: 2290 nM
CC50 [7, 29]: > 100000 nM
Log10 TGI50 [7]: −5.19
Log10 TGI50 [8]: −5.34
GI50 [8, 27]: 1830 nM
GI50 [8, 28]: 1820 nM
CC50 [8, 29]: > 100000 nM
Log10 TGI50 [9]: −5.43
GI50 [9, 27]: 2060 nM
GI50 [9, 28]: 2040 nM
CC50 [9, 29]: 6610 nM
Log10 TGI50 [10]: −4.72
GI50 [10, 27]: 3900 nM
GI50 [10, 28]: 3890 nM
LC50 [10, 29]: > 100000 nM
Log10 TGI50 [11]: >−4.00
CC50 ([11]; Homo sapiens, CCKF-CEM, read-out: Log10 LC50 (converted)): > 100000 nM
GI50 [11, 27]: 1950 nM
GI50 [11, 28]: 1950 nM
GI50 [12, 27]: 1960 nM
GI50 [12, 28]: 1950 nM
CC50 [12, 29]: > 100000 nM
Log10 TGI50 [12]: −5.20
Log10 TGI50 [13]: −5.47
GI50 [13, 27]: 1710 nM
GI50 [13, 28]: 1700 nM
CC50 [13, 29]: 6610 nM
GI50 [14]: 2350 to 7450 nM
GI50 [15]: 2060 to 3260 nM
Log10 TGI50 [16]: −5.37
GI50 [16, 27]: 2070 nM
GI50 [16, 28]: 2090 nM
CC50 [16, 29]: 8710 nM
GI50 ([17]; Homo sapiens, K562, K-562, Leukemia, read-out: Growth Inhibition GI50): 2960 nM
GI50 ([17]; Homo sapiens, K562, K-562, Leukemia, read-out: Log10 GI50 (converted)): 2950 nM
CC50 ([17]; Homo sapiens, K562, K-562, Leukemia, read-out: Log10 LC50 (converted)): > 100000 nM
Log10 TGI50 ([17]; K-562, Leukemia): −5.06
Log10 TGI50 [18]: −5.42
GI50 ([18]; Homo sapiens, RXF 393, read-out: Growth Inhibition GI50): 1790 nM
GI50 ([18]; Homo sapiens, RXF 393, read-out: Log10 GI50 (converted)): 1780 nM
CC50 ([18]; Homo sapiens, RXF 393, read-out: Log10 LC50 (converted)): 7940 nM
GI50 [19]: 2600 to 3690 nM
GI50 [20]: 1950 to 7550 nM
GI50 [21]: 960 to 7620 nM
GI50 [22, 27]: 1390 nM
GI50 [22, 28]: 1380 nM
CC50 [22, 29]: > 100000 nM
Log10 TGI50 [22]: −5.20
Log10 TGI50 [23]: −4.92
GI50 [23, 27]: 3760 nM
GI50 [23, 28]: 3720 nM
CC50 [23, 29]: 38900 nM
Log10 TGI50 [24]: −5.49
GI50 [24, 27]: 1710 nM
GI50 [24, 28]: 1700 nM
CC50 [24, 29]: 6170 nM
GI50 [25, 27]: 2190 nM
GI50 [25, 28]: 2190 nM
CC50 [25, 29]: 6310 nM
Log10 TGI50 [25]: −5.43
Log10 TGI50 [26]: >−4.00
GI50 ([26]; Homo sapiens, Hs-578T, read-out: Growth Inhibition GI50): 3460 nM
GI50 ([26]; Homo sapiens, Hs-578T, read-out: Log10 GI50 (converted)): 3470 nM
CC50 ([26]; Homo sapiens, Hs-578T, read-out: Log10 LC50 (converted)): > 100000 nM

Source: patent publication US9783537B2, “3-(4-ethylnylphenyl) pyridopyrimidinone compounds and process for preparation thereof useful as potential anticancer agents” (Council of Scientific & Industrial Research, priority 2013, dated 2017)
